Where no end group is shown, it is not given here. [ ]: non-standard residue; d: D form. βAla = NCCC(=O)O
Key:
HIV-1IIIB = type: cell-based; details: CEM-SS T-cells, peptides 10 micrograms per ml, 6 days post-infection, MTS
[1] = system: Primary Human endothelial cells (HUVEC); experiment: Endothelial cell migration assay; type: cell-based; details: 10 micrograms per ml, 22 hours
Protocol: Thereafter, designated concentration of testing peptides —10 micrograms per ml—was added in duplicate wells.

HUVEC = experiment: Endothelial tube formation assay; type: cell-based, human; details: 10 micrograms per ml, 20 hours
Text: Positive control was vehicle only. […] Raw data were expressed as average tubule lenghs in pixels±standard deviation.

[2] = system: hepatitis B virus (HBV) ayw strain; experiment: HBV assay in HepG2-2.2.15 cells, secreted HBV DNA by TaqMan PCR; type: cell-based; details: 10 micrograms per ml, six days, HBV DNA in supernatant
murine spleen cells = experiment: Th1/Th2 cytokine profiling assay (Ovalbumin-restimulated spleen cells, CBA kit); type: cell-based, Balb/c mice; details: 10 micrograms per ml, Ovalbumin restimulation, 72 hours
Text: The Balb/c mice (originated in 1923, it is a popular strain and is used in many different research disciplines. Also classified as an inbred from the production of 20 or more successive brother-sister matings, the Balb/c mouse is albino and small in size) were immunized on Days 1, 15, and 29 with Ovalbumin (Ovalbumin is the main protein found in egg white, commonly used to stimulate an immunological reaction in test animals) in PBS (5 micrograms/injection). On day 50, spleens of the mice were harvested (3 weeks after last boost with Ovalbumin). Cells were cultured (2×10^5/well in triplicate) and incubated with culture medium or test peptides —10 micrograms per ml—for 30 min. Thereafter, additional Ovalbumin was added to the cells at 10 micrograms/ml for in vitro restimulation of the cells. 72 hours later, cell supernatants were harvested and assayed using the Becton Dickinson Mouse Th1/Th2 Cytokine CBA Kit. This kit can be used to measure Interleukin-2 (IL-2), Interleukin-4 (IL-4), Interleukin-5 (IL-5), Interferon-γ (IFN-γ), and Tumor Necrosis Factor-α(TNF-α) protein levels in a single sample.

A549 cells = experiment: Apoptosis prevention assay (C2 ceramide, Annexin-5); type: cell-based; details: human lung cells (A549), 10 micrograms per ml, 30 min pretreatment
Protocol: Human A549 cells (carcinomic human alveolar basal epithelial cells) were utilized in the experiments employing the Annexin-5 apoptosis assay. […] A549 cells were pretreated for 30 min with test peptides —10 micrograms per ml—followed by the exposure to C2 ceramide. […] C2 ceramide is a synthetic, membrane soluble analog of ceramide.

RAW 264.7 cells = experiment: Phagocytosis assay (Fluorescein-labeled Escherichia coli, flow cytometry); details: 10 micrograms per ml, 30 min preincubation, 60 min ingestion
Protocol: RAW 264.7 (Mouse leukaemic monocyte macrophage cell line) cells were obtained from ATCC and grown in RPMI 1640 medium containing 10% FBS. Cells were incubated in 12×75 mm tubes at 37° C. with test peptides —10 micrograms per ml—for 30 min prior to adding Fluorescein-labeled Escherichia coli bacteria as the agent to be ingested. After the cells were incubated for additional 60 min at 37° C. and allowed to ingest the Fluorescein-labeled Escherichia coli bacteria, cells were fixed with 1% paraformaldehyde. The samples were then analyzed by flow cytometry to determine the amount of phagocytosis as a function of brightness (the greater the phagocytic activity, the more fluorescence in the macrophage population). Data are reported as % positive and the mean fluorescence intensity (MFI) of positively stained cells.

HCMV strain AD169 = experiment: HCMV plaque formation assay in MRC-5 cells; details: HCMV AD169, 10 micrograms per ml, 7-10 days

| Compound | inhibition of HIV-1 activity (antiviral activity) (HIV-1IIIB) | inhibition of the migration of human endothelial cells [1] [%] | inhibition of the tube formation of human endothelial cells (HUVEC) [%] | inhibition of HBV replication as compared to the virus control infection [2] [%] | change of the production of IFN-gamma (murine spleen cells) | change of the production of IL-4 (murine spleen cells) | change of the production of IL-5 (murine spleen cells) | change of the production of TNF-alpha (murine spleen cells) | induction of the production of IL-2 (murine spleen cells) [%] | reduction of ceramide-induced apoptosis (A549 cells) | induction of phagocytosis as compared to the control experiment (RAW 264.7 cells) | inhibition of HCMV plaque formation as compared to the virus control experiment (HCMV strain AD169) |
| --- | --- | --- | --- | --- | --- | --- | --- | --- | --- | --- | --- | --- |
| Cc1cn([C@H]2C[C@H](N=[N+]=[N-])[C@@H](CO)O2)c(=O)[nH]c1=O [AZT] | expected levels of antiviral activity | – | – | – | – | – | – | – | – | – | – | – |
| CC(C)(C)NC(=O)[C@@H]1CN(Cc2cccnc2)CCN1C[C@@H](O)C[C@@H](Cc1ccccc1)C(=O)N[C@H]1c2ccccc2C[C@H]1O [indinavir] | expected levels of antiviral activity | – | – | – | – | – | – | – | – | – | – | – |
| Ala-Ile-Phe-Ile-Phe-Ile-Arg-Trp-Leu-Leu-Lys-Leu-Gly-His-His-Gly-Arg-Ala-Pro-Pro-OH (AIFIFIRWLLKLGHHGRAPP-OH) [Peptide 1] | – | 19 | 23 | 44.6 | did not significantly change | did not significantly change | did not significantly change | did not significantly change | 156 | 28.2% | did not induced phagocytosis | did not inhibit |
| [βAla]-His-OH [Peptide 2] | – | 8 | 21 | 29.6 | did not significantly change | did not significantly change | did not significantly change | did not significantly change | 26.5 | did not reduce | 48.6% | 4.4% |
